# Data from patent US8022055B2, “Betulinic acid derivatives” (Dabur Pharma Limited, priority 2005, dated 2011).
# How the values were obtained:
# [1] = system: various cancer cell lines; test: in vitro cytotoxicity / anticancer activity, overall statement
# NIH 3T3 cells = test: NIH3T3 cytotoxicity test (72 h MTT assay); assay type: cell-based; settings: NIH3T3, 72 hours
# How it was run: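 Mouse NIH 3T3 fibroblasts exposed to a concentration range of compound for 72 hours; viable cells measured by MTT and growth inhibition calculated against untreated cultures. IC50 expressed in μg/ml; safety index is the NIH 3T3 IC50 divided by tumour-cell IC50.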
# Miapaca = test: three day MTT cytotoxicity assay, Miapaca; assay type: cell-based, human
# SW620 = test: three day MTT cytotoxicity assay, SW620; assay type: cell-based, human; settings: SW620, 72 hours
# HBL100 = test: three day MTT cytotoxicity assay, HBL100; assay type: cell-based, human
# Description: A number of compounds listed in Table-3 were tested for cytotoxicity against prostate, lung, laryngeal, pancreas, breast, colon and ovarian cancer, leukemia and lymphoma, human tumor cell lines. Briefly, a three day MTT cytotoxicity assay was performed, which is based on the principle of uptake of MTT (3-(4,5-dimethylthiazol-2-yl)-2,5-diphenyl tetrazolium bromide), a tetrazolium salt, by the metabolically active cells where it is metabolized by active mitochondria into a blue colored formazan product that is read spectrophotometrically. MIT was dissolved in phosphate buffered saline with a pH of 7.4 to obtain an MIT concentration of 5 mg/ml; the resulting mixture was filtered through a 0.22-micron filter to sterilize and remove a small amount of insoluble residue. For each type of tumor cell, 10,000 to 15,000 cells were seeded in a 96-well culture plate and incubated with the individual betulinic acid derivatives in a CO2 incubator for a total of 72 hours. Control cells not treated with the betulinic acid derivatives were similarly incubated. The assay was terminated by adding 100 μg (20 μl) of MIT to each well then incubating for additional one hour, and finally adding 50 μl of 10% SDS-0.01N HCl to each well to lyse the cells and dissolve formazan. After incubating for one hour, the plate was read spectrophotometrically at 540 nm and the percentage of cytotoxicity calculated using the following formula: Cytotoxicity percentage=100×[1−(X/R1)], where X=(absorbance of treated sample at 540 nm)−(absorbance of blank at 540 nm) R1=absorbance of control sample at 540 nm. The IC50 Values of the cytotoxicity defined as the concentration at which 50% of the cells are killed in vitro was calculated for each cell line treated with each of the betulinic acid derivatives.
# [2] = Pharmacokinetic study after intravenous injection; settings: rat, 10 mg/kg intravenous
# Description: Blood samples were taken at various times after administration and plasma was prepared and frozen at −20° C. until analysis. The plasma sample were analyzed by a suitable HPLC method using a C-18 column. The pH of water is adjusted to 3.0 with phosphoric acid. Start the gradient with 70% acetonitrile for 5 minutes and increase the concentration up to 100% within 25 minutes followed by hold at 100% for 10 minutes. It is thus possible to construct the curve showing the plasma concentration as a function of time and to determine different pharmacokinetic parameter of compound studied.
# A549 = test: three day MTT cytotoxicity assay, A549; assay type: cell-based, human
# K562 = test: three day MTT cytotoxicity assay, K562; assay type: cell-based, human
# PA1 = test: three day MTT cytotoxicity assay, PA1; assay type: cell-based, human; settings: PA1, 72 hours
# Description: Briefly, a three day MTT cytotoxicity assay was performed, which is based on the principle of uptake of MTT (3-(4,5-dimethylthiazol-2-yl)-2,5-diphenyl tetrazolium bromide), a tetrazolium salt, by the metabolically active cells where it is metabolized by active mitochondria into a blue colored formazan product that is read spectrophotometrically. MIT was dissolved in phosphate buffered saline with a pH of 7.4 to obtain an MIT concentration of 5 mg/ml; the resulting mixture was filtered through a 0.22-micron filter to sterilize and remove a small amount of insoluble residue. For each type of tumor cell, 10,000 to 15,000 cells were seeded in a 96-well culture plate and incubated with the individual betulinic acid derivatives in a CO2 incubator for a total of 72 hours. Control cells not treated with the betulinic acid derivatives were similarly incubated. The assay was terminated by adding 100 μg (20 μl) of MIT to each well then incubating for additional one hour, and finally adding 50 μl of 10% SDS-0.01N HCl to each well to lyse the cells and dissolve formazan. After incubating for one hour, the plate was read spectrophotometrically at 540 nm and the percentage of cytotoxicity calculated using the following formula: Cytotoxicity percentage=100×[1−(X/R1)], where X=(absorbance of treated sample at 540 nm)−(absorbance of blank at 540 nm) R1=absorbance of control sample at 540 nm. The IC50 Values of the cytotoxicity defined as the concentration at which 50% of the cells are killed in vitro was calculated for each cell line treated with each of the betulinic acid derivatives.
# DU145 = test: three day MTT cytotoxicity assay, DU145; assay type: cell-based, human; settings: DU145, 72 hours
structure (smiles),measurement,setting,value
"C=C(C)[C@@H]1CC[C@]2(C(=O)O)CC[C@]3(C)C(CCC4[C@@]5(C)Cc6c([nH]c7ccc(Cl)cc67)C(C)(C)C5CC[C@]43C)C12 (stereo partly drawn) [Compound 5, 5′-Chloro-2,3-didehydroindolo[2′,′:2,3]betulinic acid]",in vitro cytotoxicity / anticancer activity (in words),[1],significantly improved anticancer activity over betulinic acid
same,IC50 for cell lines NIH3T3,NIH 3T3 cells,4.6 ± 0.14 µg/mL
same,IC50 for cell lines Miapaca,"Miapaca; Miapaca, 72 hours, MTT",2.44 ± 0.26 µg/mL
same,Specific Index (SI) for cell lines Miapaca,Miapaca; ratio of IC50 of NIH 3T3 cells to Miapaca,1.885
same,IC50 for cell lines SW620,SW620,2.7 µg/mL
same,IC50 for cell lines HBL100,"HBL100; HBL100, 72 hours, MTT",11.75 ± 1.65 µg/mL
same,Specific Index (SI) for cell lines HBL100,HBL100; ratio of IC50 of NIH 3T3 cells to HBL100,0.391
same,elimination (Kel) as compared to betulinic acid,[2],slower elimination
same,pharmacokinetic properties (in words),[2],significantly superior pharmacokinetic properties over betulinic acid
same,plasma concentrations as compared to betulinic acid (II),[2],quite high and long lasting
same,systemic exposure (AUC0-∞) as compared to betulinic acid,[2],better systemic exposure
same,AUC(0-e),[2]; plasma,78400 ng·h/mL
same,C0,[2]; plasma,132.2 µg/mL
same,T1/2,[2]; plasma,6.7 h
same,Vd,[2]; plasma,0.23 mL
same,IC50 for cell lines A549,"A549; A549, 72 hours, MTT",7.14 ± 0.5 µg/mL
same,Specific Index (SI) for cell lines A549,A549; ratio of IC50 of NIH 3T3 cells to A549,0.644
same,IC50 for cell lines K562,"K562; K562, 72 hours, MTT",9.61 ± 0.78 µg/mL
same,Specific Index (SI) for cell lines K562,K562; ratio of IC50 of NIH 3T3 cells to K562,0.478
same,IC50 for cell lines PA1,PA1,2.5 µg/mL
same,IC50 for cell lines DU145,DU145,4.9 µg/mL
